Here are results for 19 compounds from patent US5830672A, “Elisa kit for the rapid determination of N-acetyltransferase (NAT2) phenotypes” (priority 1996, dated 1998).

The test system of one data set is AAMU-Ab. As to the kind of experiment: Competitive antigen ELISA, cross-reactivity of AAMU-Ab. The format is binding, rabbit. Particulars: for % Cross-Reaction AAMU-Ab: 0 = absence of inhibition or inhibition no higher than 40% at highest concentration tested (5 × 10^-3 M). As for the experimental part: (§1) Four mature females New Zealand white rabbits (Charles River Canada, St-Constant, Que., Canada) were used for antibody production. The protocol employed in this study was approved by the McGill University Animal Care Committee in accordance with the guidelines from the Canadian Council on Animal Care. An isotonic saline solution (0.6 mL) containing […] of BSA conjugated antigen was emulsified with 0.6 mL of a complete Freund's adjuvant. 0.5 mL of the emulsion (100 mg of antigen) was injected per rabbit intramuscularly or subcutaneously. Rabbits were subsequently boosted at intervals of three weeks with 50 mg of antigen emulsified in incomplete Freund's adjuvant. Blood was collected by venipuncture of the ear 10-14 days after boosting. Antisera were stores at 4° C. in the presence of 0.01% sodium azide. Buffers and water without additives were filtered through millipore filters and kept for 1 week. BSA, antibodies, Tween™ 20 and horse radish peroxidase conjugates were added to these buffers and water just prior to use. Urine samples were usually collected 4 hours after drinking a cup of coffee (instant or brewed with approximately 100 mg of caffeine per cup) and stored at -80° C. They were diluted 10 times with sodium phosphate buffer (620 mosm, pH 7.50) and were subsequently diluted with water to give concentrations of AAMU and 1X no higher than 3×10^-6 M in the ELISA. All the pipettings were done with an eight-channel pipette, except those of the antibody and sample solutions. Starting with the last well, 100 μL of a carbonate buffer (100 mM, pH 9.6) containing 2.5 μg mL^-1 antibodies was pipetted. […] After the initial wash, unoccupied sites were blocked by incubation for 90 min. at room temperature with 100 μL TPB containing 3% BSA. The wells were washed four times with 100 μL TPB. […] AAMU or 1X, 2×10^-4 to 2×10^-8 M) or sample in duplicate. The microplate was gently shaken with an orbital shaker at room temperature for 3-4 hours. […] To the washed plate was added 150 μL of a substrate buffer composed of citric acid (25 mM) and sodium phosphate dibasic buffer (50 mM, pH 5.0) containing 0.06% hydrogen peroxide and 0.04% o-phenylenediamine hydrochloride. […] Buffers and water without additives were filtered through millipore filters and kept for 1 week. BSA, antibodies, Tween™ 20 and horse radish peroxidase conjugates were added to these buffers and water just prior to use. Urine samples were usually collected 4 hours after drinking a cup of coffee (instant or brewed with approximately 100 mg of caffeine per cup) and stored at -80° C. They were diluted 10 times with sodium phosphate buffer (620 mosm, pH 7.50) and were subsequently diluted with water to give concentrations of AAMU and 1X no higher than 3×10^-6 M in the ELISA. All the pipettings were done with an eight-channel pipette, except those of the antibody and sample solutions. Starting with the last well, 100 μL of a carbonate buffer (100 mM, pH 9.6) containing 2.5 μg mL^-1 antibodies was pipetted. […] After the initial wash, unoccupied sites were blocked by incubation for 90 min. at room temperature with 100 μL TPB containing 3% BSA. The wells were washed four times with 100 μL TPB. […] AAMU or 1X, 2×10^-4 to 2×10^-8 M) or sample in duplicate. The microplate was gently shaken with an orbital shaker at room temperature for 3-4 hours. […] To the washed plate was added 150 μL of a substrate buffer composed of citric acid (25 mM) and sodium phosphate dibasic buffer (50 mM, pH 5.0) containing 0.06% hydrogen peroxide and 0.04% o-phenylenediamine hydrochloride. […] Each curve represents triplicate determinations in a single run. The error bars represent standard deviations. For data point with no error bars, the error bars are less the size of the symbol. […] The cross reactivities of AAMU-Ab and 1X-Ab were tested using a wide variety of caffeine metabolites and structural analogs (Table 1 below).
For orientation: ELISA stands for enzyme-linked immunosorbent assay.

The test system of a further data set is 1X-Ab. As to the kind of experiment: Competitive antigen ELISA, cross-reactivity of 1X-Ab. The format is binding, rabbit. Particulars: for % Cross-Reaction 1X-Ab: 0 = absence of inhibition or inhibition no higher than 40% at highest concentration tested (5 × 10^-3 M). As for the experimental part:
as §1

Data set [1] deals with N-acetyltransferase (NAT2). The following applies: rapid acetylators at greater risk of severe toxicity; cited from earlier work.

Take `CC(=O)Nc1c(N)[nH]c(=O)n(C)c1=O`: in the data set on AAMU-Ab, the “% Cross-Reaction AAMU-Ab” value was found to be 100%. For the same compound, the IC50 in the data set on AAMU-Ab (AAMU-Ab, read-out: concentration required for 50% inhibition in the competitive antigen ELISA) came to 1.5 µM. In addition, the “% Cross-Reaction 1X-Ab” value in the data set with 1X-Ab was found to be 0%.
In the case of `Cn1c(=O)c2c(ncn2C)n(C)c1=O` [1,3,7-Trimethyl Xanthine (Caffeine), 1,3,7-Trimethyl Xanthine], the “% Cross-Reaction AAMU-Ab” value in the data set with AAMU-Ab turned out to be 0%. Moreover, the “% Cross-Reaction 1X-Ab” value with 1X-Ab is 0%.
Consider `Cn1c(=O)c2[nH]cnc2n(C)c1=O` [1,3-Dimethyl Xanthine (Theophylline), 1,3-Dimethyl Xanthine], for which, in the data set with AAMU-Ab, the “% Cross-Reaction AAMU-Ab” value is recorded as 0%. Also, the “% Cross-Reaction 1X-Ab” value in the data set with 1X-Ab is 0.2%.
Turning to `Cn1c(=O)[nH]c2ncn(C)c2c1=O` [1,7-Dimethyl Xanthine (Paraxanthine), 1,7-Dimethyl Xanthine], in the data set on AAMU-Ab, the “% Cross-Reaction AAMU-Ab” value is listed as 0%. In addition, in the data set with 1X-Ab, the “% Cross-Reaction 1X-Ab” value turned out to be 0.5%.
For the compound `Cn1c(=O)[nH]c2[nH]c(=O)n(C)c2c1=O` [1,7-Dimethyluric acid], in the data set on AAMU-Ab, the “% Cross-Reaction AAMU-Ab” value is reported as 0%. In the data set on 1X-Ab, the “% Cross-Reaction 1X-Ab” value was 0%.
`Cn1c(=O)[nH]c2nc[nH]c2c1=O` [1-Methyl Xanthine (1X), 1-Methyl Xanthine]: the “% Cross-Reaction AAMU-Ab” value with AAMU-Ab amounted to 0%. Besides, the “% Cross-Reaction 1X-Ab” value with 1X-Ab is recorded as 100%. Also, the IC50 in the data set on 1X-Ab (1X-Ab, read-out: concentration required for 50% inhibition in the competitive antigen ELISA) amounted to 10 µM.
For `Cn1c(=O)[nH]c2[nH]c(=O)[nH]c2c1=O` [1-Methyluric acid], the “% Cross-Reaction AAMU-Ab” value with AAMU-Ab is on record as 0%. For the same compound, the “% Cross-Reaction 1X-Ab” value in the data set on 1X-Ab is given as 11%.
For the compound `Cn1cnc2c1c(=O)[nH]c(=O)n2C` [3,7-Dimethyl Xanthine (Theobromine), 3,7-Dimethyl Xanthine], in the data set on AAMU-Ab, the “% Cross-Reaction AAMU-Ab” value is listed as 0%. For the same compound, the “% Cross-Reaction 1X-Ab” value in the data set with 1X-Ab was 0%.
For `Cn1c(=O)[nH]c(=O)c2[nH]cnc21` [3-Methyl Xanthine], the “% Cross-Reaction AAMU-Ab” value in the data set on AAMU-Ab is 0%. Further, the “% Cross-Reaction 1X-Ab” value with 1X-Ab worked out at 0%.
Regarding `CC(=O)Nc1c(N)n(C)c(=O)n(C)c1=O` [5-Acetamino-6-amino-1,3-dimethyluracil], the “% Cross-Reaction AAMU-Ab” value with AAMU-Ab worked out at 0%. The “% Cross-Reaction 1X-Ab” value with 1X-Ab is listed as 0%.
As for `CC(=O)Nc1c(N)[nH]c(=O)[nH]c1=O` [5-Acetamino-6-amino-uracil], the “% Cross-Reaction AAMU-Ab” value in the data set on AAMU-Ab was 0.6%. For the same compound, the “% Cross-Reaction 1X-Ab” value in the data set with 1X-Ab amounted to 0%.
On to `Cn1cnc2[nH]c(=O)[nH]c(=O)c21` [7-Methyl Xanthine], for which, in the data set on AAMU-Ab, the “% Cross-Reaction AAMU-Ab” value is given as 0%. The “% Cross-Reaction 1X-Ab” value in the data set with 1X-Ab was found to be 0%.
Regarding `Cc1nc2[nH]c(=O)[nH]c(=O)c2[nH]1` [8-Methyl Xanthine], the “% Cross-Reaction AAMU-Ab” value in the data set with AAMU-Ab came to 0%. In addition, in the data set with 1X-Ab, the “% Cross-Reaction 1X-Ab” value amounted to 0%.
Turning to `Nc1nc2nc[nH]c2c(=O)[nH]1` [Guanine], in the data set with AAMU-Ab, the “% Cross-Reaction AAMU-Ab” value is listed as 0%. Moreover, the “% Cross-Reaction 1X-Ab” value in the data set on 1X-Ab turned out to be 0%.
As to `O=c1[nH]cnc2nc[nH]c12` [Hypoxanthine], the “% Cross-Reaction AAMU-Ab” value in the data set on AAMU-Ab was 0%. The “% Cross-Reaction 1X-Ab” value in the data set on 1X-Ab is given as 0%.
As to `O=c1cc[nH]c(=O)[nH]1` [Uracil], the “% Cross-Reaction AAMU-Ab” value in the data set with AAMU-Ab amounted to 0%. Further, in the data set with 1X-Ab, the “% Cross-Reaction 1X-Ab” value turned out to be 0%.
As to `O=c1[nH]c(=O)c2[nH]c(=O)[nH]c2[nH]1` [Uric acid], the “% Cross-Reaction AAMU-Ab” value in the data set on AAMU-Ab is given as 0%. For the same compound, the “% Cross-Reaction 1X-Ab” value in the data set on 1X-Ab was determined as 0%.
Consider `O=c1[nH]c(=O)c2[nH]cnc2[nH]1` [Xanthine], for which the “% Cross-Reaction AAMU-Ab” value with AAMU-Ab is 0%. In addition, in the data set on 1X-Ab, the “% Cross-Reaction 1X-Ab” value was determined as 0%.
In the case of `CN(C)CCN1C(=O)c2cccc3cc(N)cc(c23)C1=O` [amonafide], the “correlation between toxicity and acetylator phenotype” value in data set [1] is “direct correlation between toxicity and the acetylator phenotype”.
